The experiment has as its target T1, hGWL-KinDom (Homo sapiens, UniProt Q96GX5).
T1 construct: that encoded amino acids (aa) 1-194 + ‘RTFC’ + 740-879 of hGWL; GST (rhinovirus 3C-protease cleavable) (N, cleaved yes); made in house; host or cells: E. coli Rosetta2(DE3)
Description: Thermal shift assay. The class given is binding. The conditions noted are these: read-out: temperature midpoint shift (ΔTm). How it is done:
Assays were performed using a modified version of the protocol previously described in [41].
The protein crystallised in spacegroup P212121, with two molecules comprising the asymmetric unit. For one molecule (chain A), amino acids 30-72, 86-177 and 740-854 are readily discernible in electron density maps, whilst for the other (chain B) amino acids 30-72, 86-177 and 740-854 are readily discernible.
For thermal denaturation, samples containing protein at 1.5 µM and 5 x SYPRO Orange (diluted from a 5000 x stock supplied in DMSO; Sigma-Aldrich, Gillingham, UK) were prepared in sample buffer: 20 mM HEPES.NaOH pH 7.5, 300 mM NaCl, 0.5 mM TCEP. Denaturation curves were monitored in 96-well PCR plates using a Roche LightCycler 480 II, with 465 and 580 nm filters for excitation and emission wavelengths, respectively. The program was as follows: 1 min at 20°C, followed by a continuous increment of 0.03°C/s to a final temperature of 85°C. Temperature midpoints (Tm) for each folded to unfolded transition were determined by non-linear regression fitting of a modified Boltzmann model to normalized data in Prism 6.0 (version 6.0h, GraphPad Software, La Jolla, CA USA). […]
After stopping the above non-radioactive kinase assay with 1 volume of Kinase-Glo Max reagent the mixture was allowed to incubate for a further 15 min. […] As this assay measures ATP, activity or ATP turnover was measured as the -ΔRLU. […]

The structures appear in SMILES notation.

T1 sequence (Q96GX5 with tags, fused parts or gaps limits assumed): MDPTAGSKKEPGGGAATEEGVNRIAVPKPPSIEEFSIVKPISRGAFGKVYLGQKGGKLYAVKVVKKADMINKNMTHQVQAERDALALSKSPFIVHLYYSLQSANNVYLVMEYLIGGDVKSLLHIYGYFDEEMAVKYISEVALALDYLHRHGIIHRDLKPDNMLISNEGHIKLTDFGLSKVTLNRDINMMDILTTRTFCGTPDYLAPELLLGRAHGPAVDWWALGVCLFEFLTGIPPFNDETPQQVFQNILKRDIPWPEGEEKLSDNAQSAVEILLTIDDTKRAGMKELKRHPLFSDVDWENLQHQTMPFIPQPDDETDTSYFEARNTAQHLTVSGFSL

Take `CN[C@@H]1C[C@H]2O[C@@](C)([C@@H]1OC)n1c3ccccc3c3c4c(c5c6ccccc6n2c5c31)C(=O)NC4` [STU, staurosporine]: the ΔTm at 10 µM worked out at 8.2 °C.
